Data as given in US12171769B2, “Methods, compositions, and kits for treating and/or preventing a side effect associated with radiation and/or chemotherapy exposure” (BioMimetix JV, LLC, priority 2017, dated 2024).
Read-outs that look alike come from different tables or passages of the source.

Columns and labels:
platelet count = tested on: platelet count
Protocol: (§1) Four different loading doses were tested, which were: 7, 14, 28 and 42 mg, and the maintenance doses were half of the respective loading dose. The loading dose was administered prior to chemoradiation, and for the duration of treatment the respective maintenance doses were administered twice a week (i.e., a patient administered a 7 mg loading dose received two separate maintenance doses of 3.5 mg each week for 8 weeks.) The primary focus of this study is to determine the maximum tolerated dose of four dose levels. […] All subjects have a diagnosis of glioblastoma (WHO grade IV) and mean age is 62.7 years (range 54 years to 80 years).
In patients receiving temozolomide the standard of care is to stop therapy for patients developing a platelet count below 100,000.

[1] = administered orally on an empty stomach; cited from earlier work
[2] = TMZ in combination with RT; cited from earlier work
[3] = stored at 27° C.; cited from earlier work
[4] = tested on: FaDu (human pharyngeal carcinoma) cells
Protocol: For tumor control studies, female nu/nu mice were obtained from the Duke University Breeding Facility. Mice were group housed in a barrier facility and allowed to acclimate to their new environment for at least one week before experiments.
Tumor growth delay study: FaDu (human pharyngeal carcinoma) cells were obtained from the Duke University Cell Culture facility and were confirmed to be free of mycoplasma and known rodent pathogens. Cells were grown in Dulbecco's modified Eagle's medium with 10% fetal bovine serum. Mice were injected s.c. in the right flank with 3×10^6 cells suspended in 100 ml serum-free media. Seven days after implantation mice were randomized to treatment groups that received either MnBuOE (0.6 mg/kg loading dose followed by t.i.w. 0.3 mg/kg (loading/3× weekly maintenance) MnBuOE or an equivalent volume of saline. Tumors were measured daily with calipers and the volume was calculated using the equation V=(A^2×B×π)/6, where A is the shortest diameter and B is the longest diameter. As tumors reached 200 mm^3, they randomized into radiation treatment groups consisting of three daily fractions of radiation (6, 9, 12, 15 or 17 Gy/fraction) administered on three consecutive days. Cisplatin (6 mg/kg; APP pharmaceuticals, Schaumberg, IL) was injected intraperitoneally four hours prior to the first radiation fraction. […]

[5] = tested on: normal tissue injury following RT+cisplatin
Protocol: Mice were treated with 1×9Gy+6 mg/kg cisplatin.
(§2) A collimating cone that produced a 15 mm×40 mm radiation field was used to target the radiation beam to the salivary gland and oral cavity. The RT field included all major and minor salivary glands (located primarily in the neck region of mice), and the oral mucosa, including glands of the cheeks, lips and tongue. The target tissues were localized within the radiation field with a source-to-subject distance of 30.76 cm, using fluoroscopy at 40 kVp and 2.5 mA with a 2 mm Al filter. […] Control mice were anesthetized but not imaged fluoroscopically or irradiated.
Mucositis evaluation using fluorescence molecular tomography: As reported previously, we used ProSense 750EX (Perkin Elmer, Waltham, MA) to detect mucositis. ProSense 750EX is a near-infrared (NIR) imaging agent that is cleaved by cathepsins, a family of enzymes that are expressed during inflammation, (17). Mice were injected intravenously with 100 μL ProSense 750EX. Twenty-four hours after injection, mice were anesthetized via isoflurane and imaged using the Visen FMT 2500LX (Perkin Elmer). The ProSense 750EX signal was quantified using TrueQuant software (Perkin Elmer Life and Analytical Sciences, Downers Grove, IL).

GSH/GSSG = details: MnBuOE 0.2 mg/kg 24 hours prior to RT (9 Gy); 24 hours post-RT
Protocol: (§3) MnBuOE synthesis and administration: MnBuOE was synthesized as previously described. […] Mouse injections were administered subcutaneously, with MnBuOE dissolved in sterile saline. Mice received an initial dose of 0.2, 0.6, or 2.0 mg/kg, followed by three times per week (t.i.w.) maintenance doses of one-half of the loading dose (i.e., 0.1, 0.3, or 1.0 mg/kg, respectively) (termed 2/1, 0.6/0.3 and 0.2/0.1 dosing schedules).

FaDu tumors = details: MnBuOE 1.5 mg/kg b.i.d.; five fractions of radiation (5-10 Gy/fraction); previous work (13); cited from earlier work
xerostomia = details: 11 weeks post-RT (9 Gy); 2/1 mg/kg MnBuOE; vs unirradiated control
Protocol: Xerostomia quantification by stimulating saliva production: Mice were injected intraperitoneally with 3 μg carbomylcholine chloride (Sigma) dissolved in sterile phosphate-buffered saline. Salivation began 2 minutes after injection. Saliva was collected via pipette for 4 minutes. The volume was measured gravimetrically, assuming a density of 1 g/mL.

cognitive function = details: eight subjects, before vs after concurrent chemoradiation (8 weeks)
Protocol: as §1
Cognitive testing included Hopkins Verbal Learning Test-Revised (HVLT-R), Trails Making A and B Tests, and Controlled Oral Wood Association Test (COWA). […] This is notable because these are the primary cognitive tests that reveal poorer performance in multiple brain mestastases patients after whole brain radiation therapy.

[6] = in vivo, 1.5 mg/kg
From the text: The magnitude of such oxidative modification is directly related to the levels of major reactive species involved in the process: H2O2 and MnBuOE.

[7] = tested on: leukocyte-endothelial cell interactions; details: for Effect, repeated measures ANOVA of shear rates / Effect, repeated measures ANOVA of vessel diameter / Effect, repeated measures ANOVA of blood velocity: vs baseline (saline)
Protocol: as §3, §2
Mice were anesthetized with 80/8 mg/kg ketamine/xylazine mixture. Acridine orange (Sigma-Aldrich, St. Louis, MO) was injected intravenously (100 μl of 0.1% acridine orange in saline). The ventral surface of the tongue was placed on a glass cover slip before mounting the mouse onto a Zeiss Observer. Z1 (Carl Zeiss A G, Oberkochen, Germany) inverted microscope equipped with Zeiss Filter Set 38.
Fluorescent excitation was performed at 470 nm, and video was obtained at 525 nm using a 40× objective. Two separate regions with at least four veins in the […] range were identified, and a 60-120 second long video at 5 frames-per-second was obtained using Zen Imaging Software (Carl Zeiss A G, Oberkochen, Germany). Mice were kept warm while anesthetized using a heated stage.
Leukocyte-endothelial cell interaction analysis: All video analysis was performed in a blinded fashion. Rolling leukocytes were defined as cells that marginated along the vessel wall and were clearly dissociated from the bulk blood flow. Four vessels were analyzed per mouse. Leukocyte counting was repeated in triplicate for each vessel and averaged to obtain the flux of rolling leukocytes (Frolling). Vessel diameter (D) and the velocity of at least one free-flowing leukocyte(s) (VL) were also measured. A pseudo shear rate (gs) was also calculated for each vessel as: gs=8VL/D. These methods have been described previously. (18)

From the text for mucositis: Animals: For normal tissue studies, six-to-eight week-old female C57B1/6 mice were used (Jackson Laboratory, Bar Harbor, ME). […] Mice were group housed in a barrier facility and allowed to acclimate to their new environment for at least one week before experiments.
Mucositis evaluation using fluorescence molecular tomography: As reported previously, we used ProSense 750EX (Perkin Elmer, Waltham, MA) to detect mucositis. […] The ProSense 750EX signal was quantified using TrueQuant software (Perkin Elmer Life and Analytical Sciences, Downers Grove, IL).

Cn1nnc2c(C(N)=O)ncn2c1=O [TMZ, 8-Carbamoyl-3-methylimidazol[5,1-d]-1,2,3,5-tetrazine-4-(3H)-one]
patients who developed platelets below 100,000 (platelet count; temozolomide + radiation without BMX-001, n=20): 9 out of 20 | bioavailable [1]: approximately 100% | Grade 3/4 non-hematological toxicity: Fatigue [2]: 7% | Grade 3/4 non-hematological toxicity: infection [2]: 3% | Grade 3/4 non-hematological toxicity: nausea and vomiting with a 5HT3-RA [2]: < 1% | Grade 3/4 non-hematological toxicity: other constitutional symptoms [2]: 2% | Grade 3/4 non-hematological toxicity: rash and dermatologic side effects [2]: 1% | Grade 3/4 non-hematological toxicity: vision [2]: 1% | Non-hematological grade 2 toxicity: Fatigue [2]: 26% | Non-hematological grade 2 toxicity: infection [2]: 1% | Non-hematological grade 2 toxicity: nausea and vomiting [2]: 13% | Non-hematological grade 2 toxicity: other constitutional symptoms [2]: 7% | Non-hematological grade 2 toxicity: rash and dermatologic side effects [2]: 9% | Non-hematological grade 2 toxicity: vision [2]: 14%

N.N.[Cl][Pt][Cl] [cisplatin]
stability of reconstituted solution [3]: 20 h

manganese butoxyethyl pyridyl porphyrin [BMX-001]
Kaplan-Meier analysis (time to tripling of tumor volume), MnBuOE vs saline treated mice ([4]; 0.6/0.3 mg/kg, at any radiation dose): no significant differences | slope of the dose response curve of tumor inhibition (AUC of dynamic treatment effect curves), MnBuOE vs control arm ([4]; p-value=0.47): no significant difference | patients who developed platelet counts below 100,000 (platelet count; BMX-001+temozolomide + radiation, loading doses 7 mg to 28 mg/subject, N=9): None of the nine | NIR signal (mucositis) ([5]; 1×9 Gy + 6 mg/kg cisplatin, MnBuOE 0.6 mg/kg loading, t.i.w. 0.3 mg/kg for five weeks, vs saline plus RT+cisplatin): significantly less NIR signal | xerostomia (saliva production) ([5]; 10, 11 and 12 weeks, MnBuOE for the first five weeks after RT+cisplatin, data not shown): trend towards reduced xerostomia | body weight ([5]; 10 weeks post-RT+cisplatin, MnBuOE 0.6/0.3 mg/kg, vs unirradiated control mice): not significantly different | long-term ulcerations and moist desquamation in the irradiated area ([5]; RT+cisplatin, MnBuOE vs saline): lessened | GSH/GSSG lower than the 0 Gy MnBuOE tongue levels (GSH/GSSG): 4% | NIR signal (mucositis signal) (mucositis; day 11 post-RT, 9 Gy, 2/1 mg/kg MnBuOE s.c. (loading/t.i.w. maintenance), vs 0 Gy control): significantly increased | NIR signal (mucositis signal) (mucositis; unirradiated mice, 2/1 mg/kg MnBuOE): did not show an appreciable NIR signal | dose-modifying effect (TCD50 curve) (FaDu tumors): 1.3 | stimulated salivation (xerostomia) (xerostomia): significant (p<0.05) decreases | Trails Making B Test (cognitive function): faster scores | performance on Hopkins Verbal Learning Test-Revised (HVLT-R) (cognitive function; loading 7-28 mg, half dose twice a week): no degradation of performance | MnBuOE concentration in the tumor [6]: 1.5 to 2 µM | Effect, repeated measures ANOVA of shear rates ([7]; MnBuOE + RT (9 Gy)): −0.83 | Effect, repeated measures ANOVA of vessel diameter ([7]; MnBuOE + RT (9 Gy)): 0.002 | Effect, repeated measures ANOVA of blood velocity ([7]; MnBuOE + RT (9 Gy), 24 hours post-RT): 0.01 | Effect, repeated measures ANOVA of shear rates ([7]; MnBuOE alone): −20.88 | Effect, repeated measures ANOVA of vessel diameter ([7]; MnBuOE alone): 0.009 | Effect, repeated measures ANOVA of blood velocity ([7]; MnBuOE alone, 24 hours post sham RT): −0.00 | leukocyte rolling ([7]; MnBuOE treatment alone): without increasing leukocyte rolling | mean number of rolling leukocytes ([7]; combination of 0.2/0.1 MnBuOE and RT, 24 hours post-RT): decreases
